Assay results taken from US11547725B2, “Anti-cancer T cells and their preparation using coenzyme A” (UNIVERSITY HEALTH NETWORK, priority 2017, dated 2023).

Columns and labels:
CD8+ T cells [1] = assay: Tc subset polarization of CD8+ T cells, intracellular cytokine staining by flow cytometry; type: cell-based, mouse; settings: for Tc22 polarization: CD8+ T cells activated three days in Tc22 conditions, compound vs vehicle (oligomycin 100 nm, etomoxir 40 μm, pantothenate 8 mM, CoA 2.5-3.5 mM)
human CD8+ cells = assay: Human T cell Tc22 polarization, intracellular cytokines by flow cytometry; type: cell-based; settings: human naive T cells, Tc22 conditions, pantothenate 8 mM on day 0, five days
Protocol: Peripheral blood mononuclear cells were obtained from healthy donors following institutional review board approval. Written informed consent was obtained from all donors who provided the samples. PBMCs were magnetically sorted for naïve T cells (Miltenyi Biotec) and seeded into a 96-well plate previously coated with 5 μg/mL anti-CD3 (eBioscience, clone OKT3). To induce Tc22 polarization, the following antibodies and cytokines were added to culture: 1 μg/mL anti-CD28 (eBioscience, clone CD28.2), 5 μg/mL anti-IFNγ (BioLegend, clone B27), 5 μg/mL anti-IL-4 (BioLegend, clone 8D4-8), 5 μg/mL anti-TGFβ (eBioscience, clone 1D11.16.8), 20 ng/mL IL-6, 10 ng/mL IL-21, 10 ng/mL IL-23, 40 ng/mL TNF-α (All from BioLegend) and 2 ng/mL FICZ. Pantothenate (8 mM) or vehicle control was also added on day 0. Five days later, cells were stimulated with PMA/ionomycin+Brefeldin for 5-6 hours. Cells were then stained and analyzed for intracellular cytokines by flow cytometry.

CD8+ T cells [2] = assay: Cytokines quantified in supernatant (cytometric bead array or ELISA); type: cell-based, mouse; settings: three day culture, CD8+ T cells activated with vehicle or CoA
Protocol: (§1) Antibodies used for flow cytometry were purchased from eBioscience, Biolegend and BD Pharmingen. Antibody clones used were: CD4 (RM-45), CD8 (53-6.7), IL-22 (IL22JOP and Poly5164), IL-17 (eBio17B7), IFN-γ (XMG1.2) and TNF-α (MP6-XT22). Antibodies used for western blotting were HIF-1a (Caymen Chem-10006421) and β-actin (Sigma—A2066). For intracellular cytokine staining, cells were re-stimulated for 5-6 hours with Cell-Stimulation Cocktail (eBioscience) in the presence of Brefeldin A (eBioscience), followed by staining using Cytofix/Cytoperm (BD Pharmingen). Flow cytometry data was acquired on a FACSCanto II (BD) and analyzed using FlowJo software (Tree Star). Cytokines were quantified in the supernatant using LEGENDPLEX cytometric bead array (Biolegend) or by ELISA (eBioscience)
Oligomycin, Etomoxir, Diethyl succinate and Calcium-D Pantothenate were purchased from Sigma, and Coenzyme A Trilithium Salt (CoA) and HIF-inhibitor (CAS 934593-90-5) were purchased from EMD Millipore. Oligomycin (100 nm) was added to CD8+ T cells 24 hours after the start of activation, while Etomoxir (40 μm), Pantothenate (8 mM), Diethyl Succinate (14 mM) and HIF-Inhibitor (40 μM) were added at the start of activation. CoA was added at the start of activation unless otherwise indicated at a concentration of 2.5-3.5 mM depending on the lot.

CD8+ T cells [3] = assay: RNA sequencing of CD8+ T cells activated with CoA or vehicle; type: cell-based, mouse; settings: RNA seq
Protocol: RNA was extracted from CD8+ T cells activated for three days in the presence of CoA or Vehicle using Qiagen RNEasy kit. Libraries were prepared using TruSeq Stranded Total RNA kit. Two hundred nanograms from RNA samples were ribosomal RNA depleted using Ribo-zero Gold rRNA beads, following purification the RNA was fragmented. The cleaved RNA fragments were copied into first strand cDNA using reverse transcriptase and random primers. This is followed by second strand cDNA synthesis using RNase H and DNA Polymerase I. A single “A” based were added and adapter ligated followed by purification and enrichment with PCR to create cDNA libraries. Final cDNA libraries were size validated using Agilent Bioanalyzer and concentration validated by qPCR. All libraries were normalized to 10 nM and pooled together. 10 pM of pooled libraries were loaded onto Illumina cBot for cluster generation. Clustered flow cell was then sequenced Pair-end 100 cycles V3 using Illumina HighSeq 2000 to achieve ˜30 million reads per sample.
The Tophat (2.0.8b) software suite with Bowtie (2.0.5) was used to align reads to the Mus musculus mm10 mouse genome (igenome). […] The cufflinks (2.2.1) software suite was used to quantify alignments. Cuffquant was used to quantify individual sample alignments and Cuffnorm was used to normalize quantified data for each group of biological replicates. […]

CD8+ T cells [4] = assay: Seahorse OCR / ECAR; type: cell-based, mouse
Protocol: (§2) Seahorse was performed as previously described (11). ATP quantification was performed on day 3 polarized T cells using a commercial kit (Sigma) according to the recommended protocol. For SITA, CD8+ T cells activated for three days in the presence of vehicle or CoA were harvested, washed and incubated for 2.5 hours with U-13C6-glucose (Cambridge Isotopes). Cells were then washed and pellet was frozen in methanol. The cells were thawed on ice and lysed by sonication at 4° C. using a Diagenode Bioruptor (30s. on, 30s off, 5 mins). The resulting mixtures were spun down (15 mins 13000 rpm 4° C.) to remove the cellular debris, the resulting supernatants were transferred to clean microfuge tubes and the solvent was removed using a speed-vac at room temperature. The resulting pellets were stored at −70° C. until derivitization. The pellets were solubilized in 30 μL of pyridine containing methoxyamine(10 mg/mL; Sigma) and each sample was spiked with 1 μL of myristic acid-D27 (750 ng/mL in pyridine; Cambridge Isotopes). The samples were vortexed, sonicated, transferred to autoinjection vials and incubated at room temperature for 30 mins. Subsequent to this, 70 uL of N-tert-Butyldimethylsilyl-N-methyltrifluoroacetamide (MTBSTFA; Sigma) was added and the samples were incubated at 70° C. for 30 mins. GC/MS analysis was performed using an Agilent 5975C GC/MS equipped with a DB-5MS+DG capillary column. 1 uL of sample was injected onto the GC column in splitless mode with an inlet temperature of 280° C. and the data was collected by electron impact set at 70 eV. Helium was used as the carrier gas with a flow rate of 1.55 mL/min. The quadrupole was set at 150° C. and the GC/MS interface at 285° C. The oven program for all metabolite analyses started at 60° C. held for 1 min, then increasing at a rate of 10° C./min until 320° C. Bake-out was at 320° C. for 10 mins and the sample data were acquired in scan mode (1-600 m/z).
To further characterize these observed differences in each Tc subset, we analyzed their respective utilization of glycolysis versus OXPHOS using the Seahorse Bioanalyzer. This method allows the concurrent measurement of the oxygen consumption rate (OCR—indicative of OXPHOS) and the extracellular acidification rate (ECAR—indicative of glycolysis) in real-time. […] Consistent with the increased ATP yield of oxidative metabolism compared to glycolysis, Tc22s had the highest amounts of intracellular ATP (FIG. 1F). We also observed metabolites involved in the TCA cycle and OXPHOS, particularly succinate, to be increased in Tc22s (FIG. 6).

CD8+ T cells [5] = assay: ATP quantification (commercial kit); type: cell-based, mouse; settings: CD8+ T cells activated with CoA vs vehicle
Protocol: as §2, with “1 uL of sample was injected onto the GC column in splitless mode with an inlet temperature of 280° C. and the data was collected by electron impact set at 70 eV. Helium was used as the carrier gas with a flow rate of 1.55 mL/min. The quadrupole was set at 150° C. and the GC/MS interface at 285° C. The oven program for all metabolite analyses started at 60° C. held for 1 min, then increasing at a rate of 10° C./min until 320° C. Bake-out was at 320° C. for 10 mins and the sample data were acquired in scan mode (1-600 m/z).” left out

CD8+ T cells [6] = assay: Stable isotope tracer analysis (SITA) with 13C-glucose, GC/MS; type: cell-based, mouse; settings: three days CoA or vehicle
Protocol: as §2, with “GC/MS analysis was performed using an Agilent 5975C GC/MS equipped with a DB-5MS+DG capillary column. 1 uL of sample was injected onto the GC column in splitless mode with an inlet temperature of 280° C. and the data was collected by electron impact set at 70 eV. Helium was used as the carrier gas with a flow rate of 1.55 mL/min. The quadrupole was set at 150° C. and the GC/MS interface at 285° C. The oven program for all metabolite analyses started at 60° C. held for 1 min, then increasing at a rate of 10° C./min until 320° C. Bake-out was at 320° C. for 10 mins and the sample data were acquired in scan mode (1-600 m/z).” left out
The data was analyzed using Agilent MSD-Chemstation interfaced to the NIST11 library. […]

HIF-1α = assay: Western blotting for HIF-1a; type: cell-based, mouse; settings: CD8+ T cells activated with vehicle or CoA
Protocol: as §1

CD4+ T cells [7] = assay: Th22 polarization of SMARTA CD4+ T cells, cytokine expression; type: cell-based, mouse; settings: CoA vs vehicle, non-polarizing or Th22 conditions
CD4+ T cells [8] = assay: OCR, OCR:ECAR ratio and ATP production in CD4+ T cells; type: cell-based, mouse; settings: CD4+ T cells activated with vehicle or CoA
Protocol: as §2, with “1 uL of sample was injected onto the GC column in splitless mode with an inlet temperature of 280° C. and the data was collected by electron impact set at 70 eV. Helium was used as the carrier gas with a flow rate of 1.55 mL/min. The quadrupole was set at 150° C. and the GC/MS interface at 285° C. The oven program for all metabolite analyses started at 60° C. held for 1 min, then increasing at a rate of 10° C./min until 320° C. Bake-out was at 320° C. for 10 mins and the sample data were acquired in scan mode (1-600 m/z).” left out

[9] = system: dextran sulfate sodium (DSS) colitis; assay: DSS colitis model; type: in vivo, mouse; settings: 2.5% DSS in water 5 days; oral CoA 0.5 mg/mL in drinking water vs vehicle
Protocol: For DSS-colitis experiments, 8-12 week old female C57BL/6 mice were randomized into different cohorts and colitis was induced using 2.5% DSS (MP Bio) added to the drinking water of mice for 5 consecutive days. CoA (0.5 mg/mL) or vehicle control was added to the drinking water on day 0. On day 5, mice were switched to fresh water without any DSS added, supplemented with either CoA (0.5 mg/mL) or vehicle control.

[10] = re-stimulated 48 hours with anti-CD3 with vehicle or CoA
[11] = CD8+ T cells activated with CoA vs vehicle

For `CC(C)(CO)[C@@H](O)C(=O)NCCC(=O)O` [pantothenate, Calcium-D Pantothenate], the Tc22 polarization (CD8+ T cells [1]) was “enhanced polarization” and the “Tc22 polarization, human CD8+ cells” value (human CD8+ cells) was “enhanced polarization”.
`CCOC(=O)CCC(=O)OCC` [succinate, Diethyl succinate] was tested, and the IL-22 production (CD8+ T cells [1]; CD8+ T cells activated three days with exogenous succinate (diethyl succinate 14 mM)) was “enhanced IL-22 production”.
With `CC(C)(COP(=O)(O)OP(=O)(O)OC[C@H]1O[C@@H](n2cnc3c(N)ncnc32)[C@H](O)[C@@H]1OP(=O)(O)O)[C@@H](O)C(=O)NCCC(=O)NCCS.[Li].[Li].[Li]` [CoA, Coenzyme A Trilithium Salt] the Tc22 polarization (CD8+ T cells [1]) was “greatly enhanced polarization”, the “Cytokine expression in non-polarizing conditions” value (CD8+ T cells [1]; CD8+ T cells activated with CoA alone, absence of polarizing cytokines) was “skewed primarily towards an IL-22^+ IL-17^− IFNγ^− population” and the “Tc22 induction in presence of IL-6 neutralizing antibody” value (CD8+ T cells [1]; CoA with anti IL-6 (10 ug/mL), three days) was “retained the ability to induce Tc22s”. The “Tc22 polarization in APC-free system” value (CD8+ T cells [1]; platebound anti-CD3 and soluble anti CD28, three days, CoA added 24 hours after start, non-polarizing or Tc22 conditions) was “induced and enhanced Tc22 polarization”, the “IL-22 production in previously activated CD8+ T cells” value (CD8+ T cells [1]; [10]) was “able to induce IL-22 production” and the “Cytokine profile in supernatants” value (CD8+ T cells [2]) was “primarily up-regulate IL-22”. For the same compound, the “Expression of genes up-regulated by Tc22 polarizing cytokines (Tc22 signature)” value (CD8+ T cells [3]; CoA alone vs vehicle, three days) was “strongly up-regulated”, the “Gene expression altered by treatment (GO term analysis)” value (CD8+ T cells [3]; CoA vs vehicle) was “primarily altered the expression of immune system genes and not metabolic genes” and the “Basal ECAR” value (CD8+ T cells [4]; [11]) was “lower basal ECAR”. The “Basal OCR” value (CD8+ T cells [4]; [11]) was “higher basal OCR”, the “OCR:ECAR ratio” value (CD8+ T cells [4]; [11]) was “high OCR:ECAR ratio” and the “Oxidative phenotype (OCR, ECAR, OCR:ECAR, ATP) in previously activated CD8+ T cells” value (CD8+ T cells [4]; [10]) was “promote an oxidative phenotype”. The “Intracellular levels of ATP” value (CD8+ T cells [5]) was “increased intracellular levels of ATP”, the “Total intracellular pools of TCA intermediates” value (CD8+ T cells [6]) was “increased total intracellular pools of many of the TCA intermediates” and the “Incorporation of 13C label into TCA metabolites” value (CD8+ T cells [6]; then 2.5 hours 13C glucose) was “enhanced incorporation of the ^13C label into TCA metabolites”. The “Levels of HIF-1α” value (HIF-1α) was “substantially increased levels of HIF-1α”, the Th22 polarization (CD4+ T cells [7]) was “induced and enhanced Th22 polarization” and the “ATP production in CD4+ T cells” value (CD4+ T cells [8]) was “enhanced ATP production”. The “Metabolic shift (OCR, OCR:ECAR ratio) in CD4+ T cells” value (CD4+ T cells [8]) was “metabolic shift towards OXPHOS” and the “Disease severity (% weight loss)” value [9] was “decrease in disease severity”.
For `CC[C@H]1/C=C/C=C/C[C@@H](C)[C@H](O)[C@@](C)(O)C(=O)[C@@H](C)[C@H](O)[C@@H](C)C(=O)[C@@H](C)[C@H](O)[C@@H](C)/C=C/C(=O)O[C@@H]2[C@H](C)[C@H](CC1)O[C@]1(CC[C@H](C)[C@H](C[C@@H](C)O)O1)[C@H]2C` [oligomycin, Oligomycin], the Tc22 polarization (CD8+ T cells [1]) was “decrease in Tc22 polarization”, the Tc1 polarization (CD8+ T cells [1]; Tc1 conditions, oligomycin 100 nm added 24 hours after start of activation) was “did enhance Tc1 polarization” and the Tc17 polarization (CD8+ T cells [1]; Tc17 conditions, oligomycin 100 nm added 24 hours after start of activation) was “did not affect Tc17 polarization”.
For `CCOC(=O)[C@@]1(CCCCCCOc2ccc(Cl)cc2)CO1` [etomoxir, Etomoxir], the Tc22 polarization (CD8+ T cells [1]) was “had no effect on Tc22 polarization”.
